Tests used:
[1] = biological target: T1, EED protein (His6-tagged full-length) binding to H3K27me3 polypeptide (Homo sapiens, UniProt O75530); test: AlphaScreen evaluation of blocking the binding of EED to H3K27Me3; settings: EED 60 nM, biotinylated H3K27me3 75 nM, 30 minutes incubation
T1 construct: His6-tagged full-length EED protein (441 amino acids)
Description: Firstly, compound solutions of different concentration gradients were prepared. Compound powder was dissolved in DMSO to prepare a mother liquor. 1.5 μl of the mother liquor of the compound was taken and added into 198.5 μl of a reaction buffer (25 mM HEPES (pH 8.0), 50 mM NaCl, 0.015% Tween 20, 0.5% BSA). The mixture was mixed uniformly. Then a 3-fold series dilution was carried out with the above-mentioned buffer containing 0.75% DMSO. 9 different test concentrations were provided for one same compound. 5 μL of compounds of different concentration gradients were taken and added into the ProxiPlate-384 Plus, White detection plate (PerkinElmer, 6008280) and two replicates in parallel were provided for each concentration gradient.
Secondly, a reaction for blocking the binding was carried out. The above-mentioned buffer was used to dilute His6-tagged full-length EED protein (441 amino acids) to 60 nM and biotinylated polypeptide fragment H3K27me3 (amino acids at positions 19-33) (Biotinylated-H3K27me3) to 75 nM. 5 μl of the polypeptide fragment at the concentration of 75 nM and 5 µl of the protein at the concentration of 60 nM were transferred to the detection wells containing the compound, respectively. The detection plate was sealed with the film and incubation was carried out at room temperature for 30 minutes.
Finally, the detection was carried out with the AlphaScreen method. Prior use, nickel chelate receptor beads and streptavidin donor beads (at the ratio of 1:1, Perkin Elmer, product number 6760619M) were mixed with the above-mentioned reaction buffer. Then 5 μl of the above-mentioned pre-mixed detection solution was added to each of the detection wells. The donor beads and receptor beads were both at a final concentration of 5 μg/mL. The detection plate was covered and sealed with tinfoil and placed in the dark at room temperature for 1 hour. The signal was read using the AlphaScreen detector on the Spectra max i3. AlphaScreen signals were standardlized based on the readings obtained from positive controls (maximum signal controls) and negative controls (minimum signal controls) to give the inhibition rates for compounds at different concentrations, and afterwards non-linear regression analysis was carried out using GraphPad Prism 5, inhibition curves were made based on the Dose-Response equation of Y=Bottom+(Top−Bottom)/(1+10^((Log IC50−X)*HillSlope)) and the IC50 values of each compound were obtained. […]

[2] = tested on: trimethylation level of histone H3K27 in G401 cells; test: ELISA (H3K27 trimethylation) analysis in G401 cells; format: cell-based; settings: Homo sapiens, G-401, 72 hours, H3K27me3 standardized to H3
How it was run: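 Cells exposed 72 h to 10-point 3-fold dilutions, top 10 μM, 0.5% final DMSO. Acid-extracted histones assayed by ELISA (ECL) for H3K27me3, normalized to total H3 and to DMSO control; IC50 from dose-response fit.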

KARPAS-422 cells = test: Cell proliferation analysis, KARPAS-422, 13 days, CellTiter-Glo; format: cell-based; settings: Homo sapiens, 312 h
How it was run: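 KARPAS-422 cells were treated with PRC2 inhibitors over 9 three-fold dilutions from 10 μM top (0.5% DMSO, duplicates) in RPMI-1640 with 15% FBS at 37 °C. Every 3–4 days cells were counted and reseeded at 1×10^4/well with fresh compound. Viability was read by CellTiter-Glo luminescence on day 13.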

T1 sequence (O75530 whole entry): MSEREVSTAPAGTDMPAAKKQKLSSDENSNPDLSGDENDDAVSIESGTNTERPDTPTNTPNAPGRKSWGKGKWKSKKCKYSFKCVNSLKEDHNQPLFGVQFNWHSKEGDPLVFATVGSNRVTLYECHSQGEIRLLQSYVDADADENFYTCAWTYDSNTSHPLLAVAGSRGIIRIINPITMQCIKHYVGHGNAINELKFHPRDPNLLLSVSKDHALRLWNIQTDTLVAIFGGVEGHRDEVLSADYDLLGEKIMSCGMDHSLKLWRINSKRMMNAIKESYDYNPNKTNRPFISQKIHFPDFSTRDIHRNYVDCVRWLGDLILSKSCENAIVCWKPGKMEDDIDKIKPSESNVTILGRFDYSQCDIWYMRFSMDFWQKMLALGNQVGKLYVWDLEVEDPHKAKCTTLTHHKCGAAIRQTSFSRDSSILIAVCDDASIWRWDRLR

Row | Structure (SMILES) | IC50 [1] [µM] | IC50 [2] [µM] | IC50 (KARPAS-422 cells) [µM]
1 | CC(=O)c1c(C)nc2c(-c3cnc(NCc4c(F)ccc5c4CCO5)n4cnnc34)cccn12 [1-(8-(5-(((5-fluoro-2,3-dihydrobenzofuran-4-yl)methyl)amino)-[1,2,4]triazolo[4,3-c]pyrimidin-8-yl)-2-methylimidazo[1,2-a]pyridin-3-yl)ethan-1-one] | 0.0048 | 0.0025 | 0.0016
2 | Cc1ccc(-c2cnc(NCc3c(F)ccc4c3CCO4)n3cnnc23)c2ncc(CC(=O)N(C)C)n12 [2-(8-(5-(((5-fluoro-2,3-dihydrobenzofuran-4-yl)methyl)amino)-[1,2,4]triazolo[4,3-c]pyrimidin-8-yl)-5-methylimidazo[1,2-a]pyridin-3-yl)-N,N-dimethylacetamide] | 0.0114 | 0.0016 | 0.0061
3 | Cc1ccc(-c2cnc(NCc3c(F)ccc4c3CCO4)n3cnnc23)c2ncc(CC(=O)O)n12 [2-(8-(5-(((5-fluoro-2,3-dihydrobenzofuran-4-yl)methyl)amino)-[1,2,4]triazolo[4,3-c]pyrimidin-8-yl)-5-methylimidazo[1,2-a]pyridin-3-yl)acetic acid] | 0.0054 | 0.004 | 0.0047
4 | Cc1ccc(-c2cnc(NCc3c(F)ccc4c3CCO4)n3cnnc23)c2ncc(CCO)n12 [2-(8-(5-(((5-fluoro-2,3-dihydrobenzofuran-4-yl)methyl)amino)-[1,2,4]triazolo[4,3-c]pyrimidin-8-yl)-5-methylimidazo[1,2-a]pyridin-3-yl)ethan-1-ol] | 0.0099 | 0.0016 | 0.0024
5 | CC(=O)OCCc1cnc2c(-c3cnc(NCc4c(F)ccc5c4CCO5)n4cnnc34)ccc(C)n12 [2-(8-(5-(((5-fluoro-2,3-dihydrobenzofuran-4-yl)methyl)amino)-[1,2,4]triazolo[4,3-c]pyrimidin-8-yl)-5-methylimidazo[1,2-a]pyridin-3-yl)ethyl acetate] | 0.0062 | 0.001 | 0.0017
6 | CC1=C(F)S(=O)(=O)c2ccc(-c3cnc(NCc4c(F)ccc5c4[C@H]4C[C@H]4O5)n4cnnc34)cc21 [2-fluoro-5-(5-((((1aR,6bR)-5-fluoro-1a,6b-dihydro-1H-cyclopropa[b]benzofuran-6-yl)methyl)amino)-[1,2,4]triazolo[4,3-c]pyrimidin-8-yl)-3-methylbenzo[b]thiophene 1,1-dioxide] | 0.0041 | 0.022 | 0.032
7 | O=S1(=O)C(F)=Cc2cc(-c3cnc(NCc4c(F)ccc5c4[C@H]4C[C@H]4O5)n4cnnc34)ccc21 [2-fluoro-5-(5-((((1aR,6bR)-5-fluoro-1a,6b-dihydro-1H-cyclopropa[b]benzofuran-6-yl)methyl)amino)-[1,2,4]triazolo[4,3-c]pyrimidin-8-yl)benzo[b]thiophene 1,1-dioxide] | 0.566 | 0.16 | 0.079
8 | NCCC1=CS(=O)(=O)c2ccc(-c3cnc(NCc4c(F)ccc5c4[C@@H]4C[C@@H]4O5)n4cnnc34)cc21 [3-(2-aminoethyl)-5-(5-((((1aS,6bS)-5-fluoro-1a,6b-dihydro-1H-cyclopropa[b]benzofuran-6-yl)methyl)amino)-[1,2,4]triazolo[4,3-c]pyrimidin-8-yl)benzo[b]thiophene 1,1-dioxide] | 0.0054 | 0.075 | 0.033
9 | CC1=C(F)c2cc(-c3cnc(NCc4c(F)ccc5c4CCO5)n4cnnc34)ccc2S1(=O)=O [3-fluoro-5-(5-(((5-fluoro-2,3-dihydrobenzofuran-4-yl)methyl)amino)-[1,2,4]triazolo[4,3-c]pyrimidin-8-yl)-2-methylbenzo[b]thiophene 1,1-dioxide] | 0.0026 | 0.0073 | 0.0049
10 | CC1=C(F)c2cc(-c3cnc(NCc4c(F)ccc5c4[C@H]4C[C@H]4O5)n4cnnc34)ccc2S1(=O)=O [3-fluoro-5-(5-((((1aR,6bR)-5-fluoro-1a,6b-dihydro-1H-cyclopropa[b]benzofuran-6-yl)methyl)amino)-[1,2,4]triazolo[4,3-c]pyrimidin-8-yl)-2-methylbenzo[b]thiophene 1,1-dioxide] | 0.0042 | 0.0058 | 0.0055
11 | Fc1ccc2c(c1CNc1ncc(-c3c(C(F)(F)F)ccc4nsnc34)c3nncn13)CCO2 [N-((5-fluoro-2,3-dihydrobenzofuran-4-yl)methyl)-8-(5-(trifluoromethyl)benzo[c][1,2,5]thiadiazol-4-yl)-[1,2,4]triazolo[4,3-c]pyrimidin-5-amine] | 0.0464 | 0.17 | –
12 | Cc1cc(-c2cnc(NCc3c(F)ccc4c3CCO4)n3cnnc23)c2nc(C(F)(F)F)cn2c1 [N-((5-fluoro-2,3-dihydrobenzofuran-4-yl)methyl)-8-(6-methyl-2-(trifluoromethyl)imidazo[1,2-a]pyridin-8-yl)-[1,2,4]triazolo[4,3-c]pyrimidin-5-amine] | 0.0157 | 0.041 | –
13 | Fc1ccc2c(c1CNc1ncc(-c3cnc4nccn4c3)c3nncn13)CCO2 [N-((5-fluoro-2,3-dihydrobenzofuran-4-yl)methyl)-8-(imidazo[1,2-a]pyrimidin-6-yl)-[1,2,4]triazolo[4,3-c]pyrimidin-5-amine] | 0.0049 | 0.0129 | –
14 | Fc1ccc2c(c1CNc1ncc(-c3cccc4cccnc34)c3nncn13)CCO2 [N-((5-fluoro-2,3-dihydrobenzofuran-4-yl)methyl)-8-(quinolin-8-yl)-[1,2,4]triazolo[4,3-c]pyrimidin-5-amine] | 0.0051 | 0.0029 | –

Other lines, results leading:

Row | IC50 [1] [µM] | IC50 [2] [µM] | IC50 (KARPAS-422 cells) [µM] | Structure (SMILES)
15 | 0.016 | 0.0015 | 0.0011 | CC(=O)c1c(C)nc2c(-c3cnc(NCc4c(F)ccc5c4CCO5)n4cnnc34)cc(F)cn12 [1-(6-fluoro-8-(5-(((5-fluoro-2,3-dihydrobenzofuran-4-yl)methyl)amino)-[1,2,4]triazolo[4,3-c]pyrimidin-8-yl)-2-methylimidazo[1,2-a]pyridin-3-yl)ethan-1-one]
16 | 0.0118 | 0.003 | 0.0032 | Cc1ccc(-c2cnc(NCc3c(F)ccc4c3CCO4)n3cnnc23)c2ncc(CC(N)=O)n12 [2-(8-(5-(((5-fluoro-2,3-dihydrobenzofuran-4-yl)methyl)amino)-[1,2,4]triazolo[4,3-c]pyrimidin-8-yl)-5-methylimidazo[1,2-a]pyridin-3-yl)acetamide]
17 | 0.0452 | 0.087 | – | CCOC(=O)c1c(C)nc2c(-c3cnc(NCc4c(F)ccc5c4CCO5)n4cnnc34)cc(F)cn12 [Ethyl 6-fluoro-8-(5-(((5-fluoro-2,3-dihydrobenzofuran-4-yl)methyl)amino)-[1,2,4]triazolo[4,3-c]pyrimidin-8-yl)-2-methylimidazo[1,2-a]pyridine-3-carboxylate]
18 | 0.0221 | 0.047 | – | CCOC(=O)c1cnc2c(-c3cnc(NCc4c(F)ccc5c4CCO5)n4cnnc34)cc(F)cn12 [Ethyl 6-fluoro-8-(5-(((5-fluoro-2,3-dihydrobenzofuran-4-yl)methyl)amino)-[1,2,4]triazolo[4,3-c]pyrimidin-8-yl)imidazo[1,2-a]pyridine-3-carboxylate]
19 | 0.029 | 0.202 | – | CCOC(=O)c1c(C(F)(F)F)nc2c(-c3cnc(NCc4c(F)ccc5c4CCO5)n4cnnc34)cccn12 [Ethyl 8-(5-(((5-fluoro-2,3-dihydrobenzofuran-4-yl)methyl)amino)-[1,2,4]triazolo[4,3-c]pyrimidin-8-yl)-2-(trifluoromethyl)imidazo[1,2-a]pyridine-3-carboxylate]
20 | 0.0221 | 0.068 | – | CCOC(=O)c1c(O)nc2c(-c3cnc(NCc4c(F)ccc5c4CCO5)n4cnnc34)cccn12 [Ethyl 8-(5-(((5-fluoro-2,3-dihydrobenzofuran-4-yl)methyl)amino)-[1,2,4]triazolo[4,3-c]pyrimidin-8-yl)-2-hydroxyimidazo[1,2-a]pyridine-3-carboxylate]
21 | 0.0058 | 0.0061 | – | Cc1ccc(-c2cnc(NCc3c(F)ccc4c3CCO4)n3cnnc23)c2ncc(F)n12 [N-((5-fluoro-2,3-dihydrobenzofuran-4-yl)methyl)-8-(3-fluoro-5-methylimidazo[1,2-a]pyridin-8-yl)-[1,2,4]triazolo[4,3-c]pyrimidin-5-amine]

Reference: patent US12583870B2, “Azaheteroaryl compound and application thereof” (SHANGHAI BLUERAY BIOPHARMA CO., LTD., priority 2019, dated 2026)
